#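 Values below derive from 48-hour exposures of cells grown in 96-well plates, with endpoints linearly interpolated between the two concentrations bracketing the appropriate inhibition level. TGI is the concentration that stops growth completely.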
# What was measured:
# Experiment in all cases: inhibition of tumour cell growth, NCI panel, 48 h
# [1] = tested on: BT-549 breast
# [2] = tested on: COLO 205 colon
# [3] = tested on: DU-145 prostate
# [4] = tested on: HCT-15 colon
# [5] = tested on: HOP-92 NSCLC
# [6] = tested on: IGROV1 ovarian
# [7] = tested on: MALME-3M melanoma
# [8] = tested on: MCF7 breast
# [9] = tested on: MDA-MB-231 breast
# [10] = tested on: MDA-MB-435
# [11] = tested on: NCI-H460 lung
# [12] = tested on: OVCAR-5 ovarian
# [13] = tested on: RPMI-8226 leukemia
# [14] = tested on: SK-MEL-28 melanoma
# [15] = tested on: SK-OV-3 ovarian
# [16] = tested on: SR leukemia
# [17] = tested on: T-47D breast
# [18] = tested on: UACC-62 melanoma
# [19] = tested on: TK-10 renal
SMILES,TGI [1] [µM],TGI [2] [µM],TGI [3] [µM],TGI [4] [µM],TGI [5] [µM],TGI [6] [µM],TGI [7] [µM],TGI [8] [µM],TGI [9] [µM],TGI [10] [µM],TGI [11] [µM],TGI [12] [µM],TGI [13] [µM],TGI [14] [µM],TGI [15] [µM],TGI [16] [µM],TGI [17] [µM],TGI [18] [µM],TGI [19] [µM]
O=C(Nc1cccc(NC(=O)C(=O)C2CCC3=C(Sc4ccccc4N3)C2=O)n1)C(=O)C1CCC2=C(Sc3ccccc3N2)C1=O (configuration not stated),> 100,> 100,> 100,> 100,> 100,> 100,> 100,> 100,> 100,> 100,> 100,> 100,> 100,> 100,> 100,> 100,> 100,> 100,–
C=C1[C@H](OC(=O)C(C)C)[C@@H](OC(C)=O)[C@@H](OC(C)=O)C(C)(C)[C@@H]2O[C@H]2[C@@H](C)C(=O)[C@@]2(OC(C)=O)C[C@@](C)(OC(C)=O)[C@H](OC(C)=O)[C@@H]2[C@H]1OC(C)=O,> 100,> 100,> 100,> 100,> 100,> 100,> 100,> 100,> 100,> 100,> 100,> 100,> 100,–,> 100,> 100,> 100,> 100,> 100
CCOC(=O)/C(C=Nc1c(C)n(C)n(-c2ccccc2)c1=O)=C(/O)c1ccccc1,> 100,> 100,> 100,> 100,> 100,> 100,> 100,> 100,> 100,> 100,> 100,> 100,> 100,> 100,> 100,> 100,> 100,> 100,> 100
CCCc1cc(=O)oc2c(C=O)c(O)cc(O)c12,77.1,40.8,82.2,73.4,45.8,> 100,42.1,80,58.2,55.3,69.5,74.4,66.5,62.8,86.9,58.1,74.9,38.4,> 100
CC(=O)OCc1ccc2oc(=O)c(C(=O)Oc3cccc(Cl)c3)cc2c1,> 100,94.4,> 100,> 100,43.5,> 100,> 100,61.6,98.8,> 100,> 100,> 100,> 100,> 100,> 100,> 100,41,34.2,91.6
C=C(C)CNC(=S)N(N)c1ccc(OC)cc1,> 100,> 100,> 100,56.8,> 100,> 100,> 100,> 100,> 100,> 100,> 100,> 100,> 100,> 100,> 100,> 100,> 100,67.7,> 100
Cc1c(-c2ccccc2)[nH]c2ccc(Cl)cc2c1=O,> 100,> 100,> 100,> 100,52,> 100,48.7,> 100,96,57.3,> 100,> 100,> 100,> 100,87.6,> 100,> 100,> 100,> 100
CC(C)/C(Cl)=N/OC(=O)Nc1cccc(C(F)(F)F)c1,15.6,3.46,34.5,3.39,3.33,26.6,3.66,16.5,17,26.9,34.3,34,3.69,10.9,31.7,3.12,14.1,27.6,12.7
Cc1nn2c(=O)c([N+](=O)[O-])c(/C=C/c3ccco3)nc2s1,> 100,> 100,> 100,> 100,> 100,> 100,> 100,> 100,> 100,44.7,> 100,> 100,> 100,> 100,> 100,79.2,> 100,> 100,> 100
CN(C)CC1CCCC(CN2CCCCC2)C1=O (configuration not stated),28.7,7.03,32.5,27.9,3.8,35.5,6.5,2.62,28.3,31.1,> 68.6,46.5,1.29,27.6,> 100,> 100,4.85,33.5,21.3
N=c1oc2c(Br)cc(Br)cc2cc1C(=O)Nc1ccccn1,> 100,> 100,> 100,> 100,> 100,> 100,> 100,> 100,> 100,> 100,> 100,> 100,> 100,> 100,> 100,> 100,> 100,> 100,–
COc1ccc2oc(=Nc3ccccc3)c(C(N)=O)cc2c1,> 100,> 100,> 100,> 100,> 100,> 100,> 100,> 100,> 100,> 24.4,> 100,> 100,> 100,> 100,> 70.2,> 100,> 100,–,> 87.6
O=c1[nH]c(=O)n(C2OC(CO)C(O)C2O)c2ncc(-c3ccc(-c4ccccc4)cc3)nc12 (configuration not stated),> 20,> 20,> 20,> 20,> 20,> 20,> 20,> 20,> 20,> 20,> 20,> 20,> 20,–,> 20,> 20,> 20,> 20,> 20
